What was measured:
R1 ES cells [1] = experiment: Serum-free monolayer cardiac differentiation of ES cells, beating colonies; type: cell-based, mouse; details: for cardiac differentiation / percentage of beating colonies: early treatment window; for number of beating colonies: treatment days 5 through 7
Description: Having identified the first serum-free monolayer condition for cardiac differentiation of ES cells, we sought to test its efficacy as a platform to discover regulators of cardiomyogenesis. A collection of approximately 200 small molecules and growth factors reported to be influential in developmental processes were assembled. R1 ES cells were grown and plated for differentiation on Matrigel in 24-well plates using the media and growth factors described above. The screening collection was then added and removed from each well at specific time points in order to account for different developmental time windows. The collection was screened at days 0-2, 2-5, and 5-7.
(§1) Cells are plated at a density of 200,000 cells/well of a 6-well plate in 2.5 ml of ESGM. 6-well plates are coated overnight at 4° C. with 1 ml of Matrigel (BD Bioscience) diluted 50× from stock concentration. 24 hours after plating, or after sufficient colony size was achieved, cells are switched into chemically defined medium (CDM) and treated with 4 uM BIO (Calbiochem) and 20 ng/ml BMP-4 (R&D). CDM contains RPMI 1640, 0.5×N2, 1×B27 (without Vitamin A), 0.5× Glutamax, 0.55 mM beta-mercaptoethanol, 1× non-essential amino acids, 1× nucleosides. At Day 2, medium is changed, and again CDM containing 4 uM BIO with 20 ng/ml BMP-4 is added to the cells. At Day 5, cells are washed once with PBS and medium is changed to CDM containing 100 ng/ml Dkk-1 (R&D). At Day 7, medium is changed, and again CDM containing 100 ng/ml Dkk-1 is added to the cells. At Day 10, cells are trypsinized (0.05% trypsin) (Approximately 5 minutes at 37° C., or until cells begin to detach) and replated onto gelatin coated 6-well plates in CDM with no additional growth factors. By this time, the cells will have formed tight colonies that will be difficult to disrupt (Supplementary FIG. 2b). […] The trypsin is used primarily to detach the cells rather than to dissociate them to a single cell suspension. It is preferable for the colonies to remain intact. The trypsin is briefly quenched with MEF media, cells are centrifuged, and resuspended in CDM for plating. Medium is refreshed as needed to remove dead cells and debris (every 1 to 2 days).

R1 ES cells [2] = experiment: QRT-PCR of markers in differentiating ES cells; type: cell-based, mouse; details: for expression of Brachyury T, Flk-1, GATA-4 and MESP1: treated day 0-2, harvested day 4.5; for expression of cardiac specific markers: treatment days 5-7, assessed at day 8
Description: To further analyze the mechanism of action of the cardiogenic effect seen with these molecules, QRT-PCR was carried out on cells treated from day 0-2 and harvested at day 4.5.
QRT-PCR was carried out to observe the induction of cardiomyogenesis at the transcript level. At day 5, when A83-01 treatment begins, the predominant state is that of a developed primitive streak type population that is yet to display robust expression of markers of cardiac precursors such as Nkx2.5, Isl-1, and c-kit.
Total RNA from each sample was prepared from 5×10^4 cells using RNeasy mini kit (Qiagen). Reverse transcription was carried out by using Reverse Transcription System (Promega) and PCR performed using PCR Super Mix (Invitrogen).

R1 mESCs = experiment: Serum-free monolayer cardiac differentiation of ES cells, αMHC immunostaining at day 10; type: cell-based, mouse; details: for effect on cardiac specification (αMHC staining at day 10): factor given in single treatment windows; for cells staining for αMHC: treatment in the first window, day 10
Excerpt: While cellular differentiation is a fluid process, its study can be simplified by defining stages of differentiation. In order to identify conditions conducive to cardiomyocyte differentiation, we employed a matrix strategy in which cells were differentiated for 10 days encompassing 4 treatment windows (followed by a period of maturation in the final procedure). The stages identified for the current study were mesendoderm, mesoderm, cardiac precursor, early cardiomyocyte, and mature cardiomyocyte. Shown in FIG. 24 is a schematic representing the transition from ES cells to cardiomyocytes, including markers for each cell type defined and the treatments used to stimulate each transition.
We began by identifying a minimal serum-free condition in which approximately 1% of cells would express αMHC (alpha-myosin heavy chain) after 10 days of culture. Combinations of medium components and plate coatings were tested in parallel, with the most permissive and consistent condition being a modified chemically defined N2/B27 medium on Matrigel coated plates (see Methods). Prior to differentiation, ES cells were maintained in a pluripotent state on MEFs and with LIF. At day −1, the cells were trypsinized and replated on Matrigel coated plates in LIF supplemented medium, allowing for better cell survival and more robust initial colony formation. In one day, a sufficient colony size is achieved allowing survival in serum-free medium (FIG. 25).
From a literature search, we identified growth factors, cytokines and small molecules reported to influence cardiac differentiation, such as activators and inhibitors of BMP, TGF-β/Nodal, Hedgehog, Wnt, and Notch pathways and tested each for their ability to induce cardiomyogenesis at each time window. For example, to test Dkk-1 in the second window, cells were in basal medium for days 0-2, treated with Dkk-1 for days 2-5, then cultured in basal medium until day 10 before immunofluorescence scoring. Positive regulators of cardiac specification at each stage were therefore identified by their ability to induce alpha-myosin heavy chain (αMHC) expression at day 10, as assessed by immunostaining.
as §1
Cells were fixed in 4% paraformaldehyde (Sigma) for 15 minutes, and stained in 0.3% Triton (Sigma) containing 5% donkey serum (Jackson ImunoResearch). Antibodies were used at dilutions of MF20 [Developmental Studies Hybridoma Bank (DSHB)] […]

[3] = system: mouse embryonic fibroblasts (MEFs); experiment: Direct cardiac reprogramming of fibroblasts, contracting patch/colony counts; type: cell-based
Excerpt: Having successfully initiated the early cardiogenic program in MEFs, we next sought to induce robust activation of mid-stage cardiac gene expression and to ultimately generate spontaneously contracting patches of cardiac cells, a hallmark of terminal differentiation that is easily observed and quantified. To this end, we treated three-factor transduced MEFs with chemically defined media (CDM) as well as cytokines and small molecules that might enhance cardiogenesis by regulating TGFβ, bone morphogenetic protein (BMP), Hedgehog, Wnt, or Notch pathway activity. Treatments were done individually and in combination, and at different times during the reprogramming process. Despite the general unsuitability of the resulting protocol for iPSC generation, we also explored whether small-molecule inhibition of JAK-STAT (Janus kinase-signal transducer and activator of transcription), PI3K (phosphatidylinositol 3-kinase), or Wnt signalling during the early stages of the protocol might boost the effectiveness of cardiomyogenesis by preventing even a small number of iPSC intermediates from forming. Finally, we experimented with a more gradual transition between different media by lowering FBS concentration step-wise in increments of 1-4% over 3-6 days (immediately prior to switching to CDM). […] During this initial nine-day period, the small-molecule JAK inhibitor JD is continuously kept in the media at a concentration of 0.5 μM. From day nine onwards, the cells are cultured in CDM, with the cardioinductive growth factor BMP4 (Snyder, A. et al., J Cell Biochem 93, 224-32 (2004)) being added at 20 ng/ml for the first five days (FIG. 1b).
All MEFs (129S2/SvPasCrlf) were derived according to WiCell protocols (https://www.wicell.org/index.php?option=com_docman&task=doc_download&gid=687). TTFs were a kind gift of Dr. Hans Schöler. Secondary MEFs were derived as previously described (Wernig, M. et al., Nat Biotechnol 26, 916-24 (2008)). All results were initially obtained and confirmed with the Nebulette-LacZ MEFs; to ensure reproducibility and minimize inter-experimental variation, reported results almost exclusively derive from experiments utilizing secondary dox-inducible MEFs using the optimum induction period. MEFs were initially passaged on gelatin-coated (0.1% for 2 hours at 37° C.) tissue culture dishes in DMEM supplemented with 10% FBS, 2 mM Glutamax and 0.1 mM NEAA (all components from Invitrogen, Carlsbad, Calif.). Prior to viral transduction, cells were seeded onto Matrigel (BD Biosciences, Franklin Lakes, N.J.) or Geltrex (Invitrogen)-coated plates (1:40, overnight at 4° C.) at 3.5×10^4 cells per well of a six well plate (7×10^4 cells for TTFs) in the same media. […]

CCCC(=O)Nc1ncnc2c1ncn2[C@@H]1O[C@@H]2COP(=O)(O)O[C@H]2[C@H]1OC(=O)CCC [dibutyryl cAMP]
cardiac differentiation / percentage of beating colonies (R1 ES cells [1]): increased the percentage of beating colonies
expression of Brachyury T, Flk-1, GATA-4 and MESP1 (R1 ES cells [2]): increased

Cc1cccc(-c2nn(C(=S)Nc3ccccc3)cc2-c2ccnc3ccccc23)n1 [A83-01, 3-(6-Methyl-2-pyridinyl)-N-phenyl-4-(4-quinolinyl)-1H-pyrazole-1-carbothioamide]
number of beating colonies (R1 ES cells [1]): induced a higher number of beating colonies
expression of cardiac specific markers (R1 ES cells [2]): induced higher levels of expression

O=C1Nc2cc(Br)ccc2/C1=C1/Nc2ccccc2/C1=N\O [BIO, 6-bromoindirubin-3′-oxime]
effect on cardiac specification (αMHC staining at day 10) (R1 mESCs): increase the percentage of αMHC staining
optimal dosage (R1 mESCs; first window (day 0-2)): 4 µM
cells staining for αMHC (R1 mESCs): approximately 20%

C[C@H]1O[C@@H](n2cnc3c(N)ncnc32)C[C@@H]1OP(=O)(OCCSC(=O)C(C)(C)C)OCCSC(=O)C(C)(C)C [2′,5′-dd-3′-AMP-bis(t-Bu-SATE)]
cardiac differentiation / percentage of beating colonies (R1 ES cells [1]): decrease in the percentage of beating clusters

COC(=O)C1=C(C)NC(C)=C([N+](=O)[O-])C1c1ccccc1C(F)(F)F (centres unmarked) [BayK 8644]
cardiac differentiation / percentage of beating colonies (R1 ES cells [1]): strong positive stimulator of cardiac differentiation
expression of Brachyury T, Flk-1, GATA-4 and MESP1 (R1 ES cells [2]): increased

B1: Activin A: a TGFβ/Activin/Nodal family member growth factor (protein, UniProt P08476 311-426, looked up)
Inhibin beta A chain: GLECDGKVNICCKKQFFVSFKDIGWNDWIIAPSGYHANYCEGECPSHIAGTSGSSLSFHSTVINHYRMRGHSPFANLKSCCVPTKLRPMSMLYYDDGQNIIKKDIQNMIVEECGCS
modifications: Inhibin beta A chain
effect on cardiac specification (αMHC staining at day 10) (R1 mESCs): negative effects
number of beating colonies (R1 ES cells [1]): lower number of beating colonies
expression of cardiac specific markers (R1 ES cells [2]): opposite effect

B2: Wnt5a: Wnt-5A class, non-canonical Wnt signaling growth factor (protein, UniProt P41221 62-380, looked up)
Protein Wnt-5a: IIGAQPLCSQLAGLSQGQKKLCHLYQDHMQYIGEGAKTGIKECQYQFRHRRWNCSTVDNTSVFGRVMQIGSRETAFTYAVSAAGVVNAMSRACREGELSTCGCSRAARPKDLPRDWLWGGCGDNIDYGYRFAKEFVDARERERIHAKGSYESARILMNLHNNEAGRRTVYNLADVACKCHGVSGSCSLKTCWLQLADFRKVGDALKEKYDSAAAMRLNSRGKLVQVNSRFNSPTTQDLVYIDPSPDYCVRNESTGSLGTQGRLCNKTSEGMDGCELMCCGRGYDQFKTVQTERCHCKFHWCCYVKCKKCTEIVDQFVCK
decrease in overall beating efficiency (R1 ES cells [1]; same stage as BayK 8644): 20%

B3: BMP4: cardioinductive growth factor, member of the TGF-β superfamily (protein, UniProt P12644 293-408, looked up)
Bone morphogenetic protein 4: SPKHHSQRARKKNKNCRRHSLYVDFSDVGWNDWIVAPPGYQAFYCHGDCPFPLADHLNSTNHAIVQTLVNSVNSSIPKACCVPTELSAISMLYLDEYDKVVLKNYQEMVVEGCGCR
contracting patches per 100,000 MEFs plated (mean) ([3]; n=6, JI1 0.5 μM first nine days, BMP4 20 ng/ml five days): 149±13 patches per 100,000 MEFs plated
increase in formation of contracting patches ([3]; three-factor transduced MEFs, BMP4 20 ng/ml for first five days in CDM): ~150 fold
optimal concentration (R1 mESCs; first and/or second treatment windows): 20 ng/mL
cells staining for αMHC (R1 mESCs): approximately 20%

B4: Dkk-1: Wnt inhibitor Dkk-1 (Dickkopf protein 1) (protein, UniProt O94907 32-266, looked up)
Dickkopf-related protein 1: TLNSVLNSNAIKNLPPPLGGAAGHPGSAVSAAPGILYPGGNKYQTIDNYQPYPCAEDEECGTDEYCASPTRGGDAGVQICLACRKRRKRCMRHAMCCPGNYCKNGICVSSDQNHFRGEIEETITESFGNDHSTLDGYSRRTTLSSKMYHTKGQEGSVCLRSSDCASGLCCARHFWSKICKPVLKEGQVCTKHRRKGSHGLEIFQRCYCGEGLSCRIQKDHHQASNSSRLHTCQRH
increase in efficiency of cardiac differentiation (R1 mESCs; after BMP-4 and BIO for 5 days, treated in third or fourth window): 20%
colonies developing a beating phenotype (R1 ES cells [1]; BMP-4 + BIO then Dkk-1, replated on gelatin, basal medium, after 6 days of culture): ~50%
